PMC10778626, “Efficacy of Novel Quaternary Ammonium and Phosphonium Salts Differing in Cation Type and Alkyl Chain Length against Antibiotic-Resistant Staphylococcus aureus” (International Journal of Molecular Sciences, 2023)
Where two headings read alike, the source gives them in different places.

Columns and labels:
[1] = Chromatographic hydrophobicity index (CHI) by UHPLC; format: physicochemical; conditions: for CHI: LC/UV at pH 2.6, calculated from retention time with the calibration line; for chromatographic logP: back-calculated from CHI at pH 2.6: CHI LogP = 0.047 × CHI + 0.36 × HBC − 1.10
Experimental: The chromatographic hydrophobicity index (CHI) values were determined using the retention times (tR) of the samples under study and of a mixture of standard compounds on a UHPLC NEXERA SERIES LC-40 with a Luna C18 (2) column of 150 × 4.6 mm, 5 μm (Phenomenex, Torrance, CA, USA). Stock solutions of the test compounds (10 mM) were prepared in dimethyl sulfoxide (DMSO, 99.9%; Carlo Erba) and diluted in acetonitrile/water (1:1) to obtain a final concentration of 500 μM. The mobile phase A was 1.0% (v/v) aqueous acetic acid solution (pH = 2.6), and the mobile phase B was acetonitrile. The following gradient programme was applied: 1–7 min 0–100% B, 7–17 min 100% B, 17–19 min 100–0% B, 1 mL/min flow; rt, injection volume 40 μL.
A calibration line was obtained using a mixture of the following compounds: benzimidazole, theophylline, paracetamol, caffeine, colchicine, carbamazepine, indole, propiophenone, butyrophenone, valerophenone, and heptanophenone (Table S1 and Figure S50, Supplementary Materials). The experimental CHI values of the compounds tested at pH 2.6 were then converted to the logarithm of octanol/water partition coefficient (CHI LogP) values using Equation (1). CHI LogP = 0.047 × CHI + 0.36 × HBC − 1.10 (1) where HBC is the hydrogen bond donor count.

S. aureus CECT 976 = test: MIC/MBC by broth microdilution, S. aureus CECT 976; format: cell-based; conditions: Staphylococcus aureus
Experimental: The minimum inhibitory concentration (MIC) and minimum bactericidal concentration (MBC) values of all QHSs were determined by the broth microdilution method, according to the approved M7-A7 (aerobes) standards of the Clinical and Laboratory Standards Institute (CLSI) guidelines. Overnight cell cultures of S. aureus, in the exponential phase of growth, were adjusted to an optical density (OD) of 0.132 ± 0.02 (λ = 600 nm). Then, a volume of 180 µL of the cell suspension was added to sterile, flat, clear-bottomed polystyrene (PS) 96-well microtiter plates (VWR—Radnor, PA, USA), already containing 20 µL of each QHS under study at concentrations ranging from 0.0625 to 64 µg/mL. In the end, the volume of each compound never exceeded 10% (v/v) of the well volume. Microtiter plates were then incubated for 24 h at 37 °C under agitation (150 rpm; INCU-Line IL 150R incubator). Absorbance measurements were performed at the beginning (t = 0 h) and end (t = 24 h) of the incubation period using a microtiter plate absorbance reader (BMG LABTECH FLUOstar Omega). Bacterial suspensions with DMSO and without QHSs were used as negative controls. […] All tests were performed with six replicates and a minimum of three independent repeats.
Plates were incubated at 37 °C for 24 h, and growth was visually inspected. […] All tests were performed in triplicate, and with a minimum of three independent repeats.

[2] = CECT976, S. aureus CECT 976, broth microdilution, 24 h, 37 °C, read-out: MIC
[3] = CECT976, S. aureus CECT 976, broth microdilution, plated on PCA, read-out: MBC

SMILES	CHI [1]	chromatographic logP [1]	MIC (S. aureus CECT 976; [2]) [mg/L]	MBC (S. aureus CECT 976; [3]) [mg/L]	MBC (S. aureus CECT 976; CECT976) [mg/L]	MIC (S. aureus CECT 976; CECT976, 24 h) [mg/L]
CCCCCC[P+](c1ccccc1)(c1ccccc1)c1ccccc1 [Compound 1a, Hexyltriphenylphosphonium bromide]	60.58	1.75	8	> 64	–	–
CCCCCCCC[P+](c1ccccc1)(c1ccccc1)c1ccccc1 [Compound 1b, Octyltriphenylphosphonium bromide]	71.06	2.24	2	16	–	–
CCCCCCCCCC[P+](c1ccccc1)(c1ccccc1)c1ccccc1 [Compound 1c, Decyltriphenylphosphonium bromide]	82.58	2.78	1	8	–	–
CCCCCCCCCCCC[P+](c1ccccc1)(c1ccccc1)c1ccccc1 [Compound 1d, Dodecyltriphenylphosphonium bromide]	94.50	3.34	–	–	16	1
CCCCCCCCCCCCCCCC[P+](c1ccccc1)(c1ccccc1)c1ccccc1 [Compound 1f, Hexadecyltriphenylphosphonium bromide]	115.5	4.33	2	16	–	–
CCCCCCCCCCCCCCCCCC[P+](c1ccccc1)(c1ccccc1)c1ccccc1 [Compound 1g, Octadecyltriphenylphosphonium bromide]	128.2	4.93	4	64	–	–
CCCCCC[n+]1ccn(C)c1.[Br-] [Compound 2a, 3-Hexyl-1-methyl-1H-imidazol-3-ium bromide]	29.35	0.279	–	–	> 64	> 64
CCCCCCCC[n+]1ccn(C)c1.[Br-] [Compound 2b, 1-Methyl-3-octyl-1H-imidazol-3-ium bromide]	42.19	0.883	> 64	> 64	–	–
CCCCCCCCCC[n+]1ccn(C)c1.[Br-] [Compound 2c, 3-Decyl-1-methyl-1H-imidazol-3-ium bromide]	54.51	1.46	16	> 64	–	–
CCCCCCCCCCCC[n+]1ccn(C)c1.[Br-] [Compound 2d, 3-Dodecyl-1-methyl-1H-imidazol-3-ium bromide]	67.25	–	1	16	–	–
CCCCCCCCCCCCCCCC[n+]1ccn(C)c1.[Br-] [Compound 2f, 3-Hexadecyl-1-methyl-1H-imidazol-3-ium bromide]	95.91	3.41	4	8	–	–
CCCCCCCCCCCCCCCCCC[n+]1ccn(C)c1.[Br-] [Compound 2g, 1-Methyl-3-octadecyl-1H-imidazol-3-ium bromide]	109.2	4.03	8	16	–	–
CCCCCCCC[n+]1ccc2ccccc2c1.[Br-] [Compound 3b, 2-Octylisoquinolin-2-ium bromide]	50.02	1.25	–	–	> 64	64
CCCCCCCCCCCCCCCC[n+]1cccc2ccccc21.[Br-] [Compound 5f, 1-Hexadecylquinolin-1-ium bromide]	101.1	3.65	4	8	–	–

The next lines start with results.

CHI [1]	chromatographic logP [1]	MIC (S. aureus CECT 976; [2]) [mg/L]	SMILES	MBC (S. aureus CECT 976; [3]) [mg/L]	MBC (S. aureus CECT 976; CECT976) [mg/L]	MIC (S. aureus CECT 976; CECT976, 24 h) [mg/L]
37.81	0.677	> 64	CCCCCC[n+]1ccc2ccccc2c1.[Br-] [Compound 3a, 2-Hexylisoquinolin-2-ium bromide]	> 64	–	–
61.62	1.8	16	CCCCCCCCCC[n+]1ccc2ccccc2c1.[Br-] [Compound 3c, 2-Decylisoquinolin-2-ium bromide]	64	–	–
74.48	2.4	2	CCCCCCCCCCCC[n+]1ccc2ccccc2c1.[Br-] [Compound 3d, 2-Dodecylisoquinolin-2-ium bromide]	16	–	–
100.8	3.64	4	CCCCCCCCCCCCCCCC[n+]1ccc2ccccc2c1.[Br-] [Compound 3f, 2-Hexadecylisoquinolin-2-ium bromide]	8	–	–
113.1	4.21	8	CCCCCCCCCCCCCCCCCC[n+]1ccc2ccccc2c1 [Compound 3g]	16	–	–
31.08	0.361	> 64	CCCCCC[n+]1ccc(C)cc1.[Br-] [Compound 4a, 1-Hexyl-4-methylpyridin-1-ium bromide]	> 64	–	–
43.90	0.963	> 64	CCCCCCCC[n+]1ccc(C)cc1.[Br-] [Compound 4b, 4-Methyl-1-octylpyridin-1-ium bromide]	> 64	–	–
55.99	1.53	32	CCCCCCCCCC[n+]1ccc(C)cc1.[Br-] [Compound 4c, 1-Decyl-4-methylpyridin-1-ium bromide]	> 64	–	–
68.96	2.14	2	CCCCCCCCCCCC[n+]1ccc(C)cc1.[Br-] [Compound 4d, 1-Dodecyl-4-methylpyridin-1-ium bromide]	16	–	–
96.77	3.45	4	CCCCCCCCCCCCCCCC[n+]1ccc(C)cc1.[Br-] [Compound 4f, 1-Hexadecyl-4-methylpyridin-1-ium bromide]	8	–	–
109.2	4.03	8	CCCCCCCCCCCCCCCCCC[n+]1ccc(C)cc1.[Br-] [Compound 4g, 4-Methyl-1-octadecylpyridin-1-ium bromide]	16	–	–
36.98	0.638	> 64	CCCCCC[n+]1cccc2ccccc21.[Br-] [Compound 5a, 1-Hexylquinolin-1-ium bromide]	> 64	–	–
49.24	1.21	16	CCCCCCCC[n+]1cccc2ccccc21.[Br-] [Compound 5b, 1-Octylquinolin-1-ium bromide]	> 64	–	–
61.45	1.79	16	CCCCCCCCCC[n+]1cccc2ccccc21.[Br-] [Compound 5c, 1-Decylquinolin-1-ium bromide]	32	–	–
74.21	2.39	4	CCCCCCCCCCCC[n+]1cccc2ccccc21.[Br-] [Compound 5d, 1-Dodecylquinolin-1-ium bromide]	16	–	–
–	–	> 64	CCCCCC[N+](CC)(CC)CC.[Br-] [Compound 7a, N,N,N-Triethylhexan-1-aminium bromide]	> 64	–	–
–	–	> 64	CCCCCCCC[N+](CC)(CC)CC.[Br-] [Compound 7b, N,N,N-Triethyloctan-1-aminium bromide]	> 64	–	–
–	–	64	CCCCCCCCCC[N+](CC)(CC)CC.[Br-] [Compound 7c, N,N,N-Triethyldecan-1-aminium bromide]	> 64	–	–
–	–	4	CCCCCCCCCCCC[N+](CC)(CC)CC.[Br-] [Compound 7d, N,N,N-Triethyldodecan-1-aminium bromide]	16	–	–
–	–	64	CCCCCCCCCCCCCCCC[N+](CC)(CC)CC.[Br-] [Compound 7f, N,N,N-Triethylhexadecan-1-aminium bromide]	64	–	–
–	–	16	CCCCCCCCCCCCCCCCCC[N+](CC)(CC)CC.[Br-] [Compound 7g, N,N,N-Triethyloctadecan-1-aminium bromide]	16	–	–
